Results as given in ChEMBL document CHEMBL1201862, “PubChem BioAssay data set” (2004).
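Step 1: Grow cells in 96-well plates. Step 2: Expose to compound for 48 hours at 5 concentrations. Step 3: Interpolate endpoints linearly; if unreached, use highest concentration. GI50 marks 50% less growth.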 Calls of active or inactive are those of the source. Cut-off read from the data, not from the text of the source: active = GI50 up to about 1.1 µM and inactive = higher.

Assays:
Test in all cases: DTP human tumour cell line panel, 48 h
786-0 = test system: 786-0
A498 = test system: A498
A549 = test system: A549
ACHN = test system: ACHN
CAKI-1 = test system: CAKI-1
CCRF-CEM = test system: CCRF-CEM
COLO 205 = test system: COLO 205
DMS-114 = test system: DMS-114
DMS-273 = test system: DMS-273
EKVX = test system: EKVX
HCC 2998 = test system: HCC 2998
HCT-116 = test system: HCT-116
HCT-15 = test system: HCT-15
HL-60 = test system: HL-60
HOP-62 = test system: HOP-62
HOP-92 = test system: HOP-92
HT-29 = test system: HT-29
IGROV-1 = test system: IGROV-1
K562 = test system: K562
KM-20L2 = test system: KM-20L2
LXFL 529 = test system: LXFL 529
M14 = test system: M14
M19-MEL = test system: M19-MEL
MOLT-4 = test system: MOLT-4
Malme-3M = test system: Malme-3M
NCI-H522 = test system: NCI-H522
OVCAR-3 = test system: OVCAR-3
OVCAR-8 = test system: OVCAR-8
RXF 631 = test system: RXF 631
SF-268 = test system: SF-268
SF-295 = test system: SF-295
SF-539 = test system: SF-539
SK-MEL-28 = test system: SK-MEL-28
SK-MEL-5 = test system: SK-MEL-5
SK-OV-3 = test system: SK-OV-3
SN12C = test system: SN12C
SNB-19 = test system: SNB-19
SNB-75 = test system: SNB-75
SNB-78 = test system: SNB-78
SR = test system: SR
SW-620 = test system: SW-620
U-251 = test system: U-251
UACC-62 = test system: UACC-62
UO-31 = test system: UO-31
XF498 = test system: XF498
DLD-1 = test system: DLD-1
HOP-18 = test system: HOP-18
KM12 = test system: KM12
NCI-H226 = test system: NCI-H226
NCI-H23 = test system: NCI-H23
OVCAR-4 = test system: OVCAR-4
OVCAR-5 = test system: OVCAR-5
SK-MEL-2 = test system: SK-MEL-2
TK-10 = test system: TK-10
UACC-257 = test system: UACC-257

Measured: GI50

CN(C(=O)C12C3C4C1C1C2C3C41C(=O)N(C)C(C)(C)C)C(C)(C)C (stereo unspecified)
inactive: 786-0 > 50 µM | A498 > 50 µM | A549 > 50 µM | ACHN > 50 µM | CAKI-1 > 50 µM | CCRF-CEM > 50 µM | COLO 205 > 50 µM | DMS-114 > 50 µM | DMS-273 > 50 µM | EKVX > 50 µM | HCC 2998 > 50 µM | HCT-116 > 50 µM | HL-60 > 50 µM | HOP-62 > 50 µM | HOP-92 > 50 µM | HT-29 > 50 µM | IGROV-1 > 50 µM | K562 > 50 µM | KM-20L2 > 50 µM | LXFL 529 > 50 µM | M14 > 50 µM | M19-MEL > 50 µM | MOLT-4 > 50 µM | Malme-3M > 50 µM | NCI-H522 > 50 µM | OVCAR-3 > 50 µM | OVCAR-8 > 50 µM | RXF 631 > 50 µM | SF-268 > 50 µM | SF-295 > 50 µM | SF-539 > 50 µM | SK-MEL-28 > 50 µM | SK-MEL-5 > 50 µM | SK-OV-3 > 50 µM | SN12C > 50 µM | SNB-19 > 50 µM | SNB-75 21.6 µM | SNB-78 > 50 µM | SR > 50 µM | SW-620 > 50 µM | U-251 > 50 µM | UACC-62 > 50 µM | UO-31 > 50 µM | XF498 > 50 µM
> 50 µM: HCT-15

O=P(Nc1ccccc1)(Oc1ccccc1)N(CCCl)CCCl (stereo unspecified)
inactive: A498 > 100 µM | A549 94 µM | ACHN > 100 µM | CAKI-1 > 100 µM | CCRF-CEM 37.8 µM | COLO 205 > 100 µM | DLD-1 > 100 µM | DMS-114 60.1 µM | DMS-273 > 100 µM | EKVX > 100 µM | HCC 2998 > 100 µM | HCT-116 > 100 µM | HL-60 14.8 µM | HOP-18 > 100 µM | HOP-62 > 100 µM | HOP-92 26.4 µM | HT-29 > 100 µM | IGROV-1 > 100 µM | K562 > 100 µM | KM-20L2 > 100 µM | KM12 65.8 µM | M14 91.8 µM | M19-MEL > 100 µM | MOLT-4 > 100 µM | Malme-3M > 100 µM | NCI-H226 > 100 µM | NCI-H23 > 100 µM | NCI-H522 14 µM | OVCAR-3 > 100 µM | OVCAR-4 > 100 µM | OVCAR-5 > 100 µM | OVCAR-8 71.9 µM | RXF 631 > 100 µM | SF-268 > 100 µM | SF-295 69.3 µM | SF-539 > 100 µM | SK-MEL-28 > 100 µM | SK-MEL-2 36.5 µM | SK-MEL-5 39.4 µM | SK-OV-3 23.1 µM | SN12C > 100 µM | SNB-75 > 100 µM | SNB-78 > 100 µM | SR > 100 µM | SW-620 > 100 µM | TK-10 > 100 µM | U-251 > 100 µM | UACC-257 > 100 µM | UACC-62 89.1 µM | UO-31 12.4 µM
> 100 µM: HCT-15
